Experimental findings from ChEMBL document CHEMBL1914350, “Convolutamines I and J, antitrypanosomal alkaloids from the bryozoan Amathia tortusa” (Bioorg Med Chem, 2011) are described below.

Each structure is given as a SMILES string. Converted amounts (≈) assume the structure as drawn.

One data set relates to P388. Put plainly: Cytotoxicity against mouse P388 cells. The data set is classed as functional, cell-based.
Data set [1] can be described thus: Antimitotic activity in sea urchins assessed as inhibition of fertilized egg cell division. The data set is classed as functional, Echinoidea.
The next data set relates to Haemonchus contortus. Nature of the data set: Antiparasitic activity against Haemonchus contortus assessed as inhibition of free-living larval stage. The format is functional.
In data set [2] the test system is Trypanosoma brucei brucei. Put plainly: Antitrypanosomal activity against Trypanosoma brucei brucei after 48 hrs by alamar blue assay. The data set is classed as functional, organism-based. On the technique in general: Alamar Blue is a resazurin reagent that responds to reducing activity.
In data set [3] the test system is HEK293. Put plainly: Cytotoxicity against human HEK293 cells after 48 hrs by alamar blue assay. The format is cell-based. The settings on record: HEK293, 48 h.
The nature of data set [4]: Selectivity index, ratio of IC50 for human HEK293 cells to IC50 for Trypanosoma brucei brucei. The data set is classed as toxicity, cell-based. The settings on record: HEK293 cells versus Trypanosoma brucei brucei, read-out: Ratio IC50.
Data set [5] is described as follows: Lipophilicity, log P of the compound. The data set is classed as physicochemical. The settings on record: octanol/water.
In data set [6] the test system is HEK293. Nature of the data set: Cytotoxicity against human HEK293 cells at 41 uM after 48 hrs by alamar blue assay. As to conditions: hek293, 48 h. The format is cell-based.
The subject of data set [7] is HEK293. Nature of the data set: Cytotoxicity against human HEK293 cells at 70 uM after 48 hrs by alamar blue assay. The format is cell-based. As to conditions: hek293, 48 h.

Broadly, the IC50 is the concentration needed to halve the response being measured. As a reminder, the logP is the decadic logarithm of the partition coefficient of the neutral form, usually between octanol and water. A high value points to a more lipophilic compound.

As for `COc1c(Br)cc(Br)c(CCN(C)CC(C)O)c1Br` (stereo unspecified) [CONVOLUTAMINE A], the IC50 in the data set with P388 amounted to 1.4 µg/mL (≈ 3.04 µM).

Molecule `COc1ccc(Br)c(CCN(C)CC(C)O)c1Br` (stereo unspecified) [CONVOLUTAMINE B] displayed a concentration for half-maximal inhibition (IC50) in the data set on P388 of 1.4 µg/mL (≈ 3.67 µM). With `COc1c(Br)cc(Br)c(CCN2COC(C)C2)c1Br` (stereo unspecified) [CONVOLUTAMINE D], in the data set on P388, the half-inhibitory concentration (IC50) was 1.4 µg/mL (≈ 3.06 µM).

Consider `CNCCc1c(Br)cc(Br)c(OC)c1Br` [CONVOLUTAMINE F], for which the half-maximal inhibitory concentration (IC50) in data set [1] turned out to be 81 µg/mL (≈ 202 µM). In the case of `CNCCc1c(Br)c(Br)c(Br)c(OC)c1OC` [CONVOLUTAMINE H], in the data set with Haemonchus contortus, the LD99 turned out to be 0.2 µg/mL. With `COc1c(Br)cc(Br)c(CCNCCCN(C)C)c1Br` [CONVOLUTAMINE I], the values for the IC50 (in data set [2]; in the data set on HEK293 [3]) were 1.1 µM and 22 µM, respectively. In data set [4], the selectivity ratio turned out to be 18.3. The same molecule registered a logP in [5] of 4.1. In the case of `COc1c(Br)cc(Br)c(CCN2C=[N+](C)CCC2)c1Br` [CONVOLUTAMINE J], in [2], the IC50 worked out at 13.7 µM. Also, the Activity entry in the data set with HEK293 [6] was “Non-toxic”. The same molecule came in with a logP in data set [5] of 3.9.

`N=C(N)c1ccc(/N=N/Nc2ccc(C(=N)N)cc2)cc1` [DIMINAZENE] displayed a half-maximal inhibitory concentration (IC50) in data set [2] of 0.0701 µM. In the data set with HEK293 [7], the Activity result was “Non-toxic”. Take `N=C(N)c1ccc(OCCCCCOc2ccc(C(=N)N)cc2)cc1` [PENTAMIDINE]: the IC50 in data set [2] came to 0.0151 µM; in the data set with HEK293 [3], 71 µM.
